Like-named read-outs stand apart in the source and are kept apart here.

A word on the inhibition: it is the drop in the measured response relative to a control, in per cent. In general, IC50 refers to the midpoint of a concentration-inhibition curve.

Assay [1] has as its target T1, ETB (Rattus norvegicus, UniProt P21451).
T1 sequence (P21451 27-442): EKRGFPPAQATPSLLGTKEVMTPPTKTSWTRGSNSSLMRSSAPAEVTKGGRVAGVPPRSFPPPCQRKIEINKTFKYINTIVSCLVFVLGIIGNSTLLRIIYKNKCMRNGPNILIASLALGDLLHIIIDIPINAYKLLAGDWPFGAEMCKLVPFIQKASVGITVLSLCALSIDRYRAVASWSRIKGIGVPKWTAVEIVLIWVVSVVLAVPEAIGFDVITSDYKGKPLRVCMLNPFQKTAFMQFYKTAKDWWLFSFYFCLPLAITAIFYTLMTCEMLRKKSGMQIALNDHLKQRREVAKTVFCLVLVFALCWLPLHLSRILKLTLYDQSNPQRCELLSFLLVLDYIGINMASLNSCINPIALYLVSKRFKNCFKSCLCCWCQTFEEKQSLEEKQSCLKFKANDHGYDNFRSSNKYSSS
The note with it: for inhibition at 10 µM: read-out: ERBA-B % inhibition.

Assay [2] has as its target T2, ETA (Oryctolagus cuniculus, UniProt A5A8K3).
T2 sequence (A5A8K3 21-427): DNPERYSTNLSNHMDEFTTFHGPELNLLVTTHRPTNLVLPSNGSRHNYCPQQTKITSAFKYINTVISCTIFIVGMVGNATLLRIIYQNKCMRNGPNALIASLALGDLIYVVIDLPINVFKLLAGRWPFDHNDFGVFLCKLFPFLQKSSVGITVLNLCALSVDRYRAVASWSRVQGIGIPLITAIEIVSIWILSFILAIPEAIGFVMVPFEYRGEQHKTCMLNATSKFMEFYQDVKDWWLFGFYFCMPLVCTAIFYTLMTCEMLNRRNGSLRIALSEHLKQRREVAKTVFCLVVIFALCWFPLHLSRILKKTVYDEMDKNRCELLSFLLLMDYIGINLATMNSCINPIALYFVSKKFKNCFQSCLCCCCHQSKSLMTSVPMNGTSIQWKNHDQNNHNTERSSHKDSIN
To be noted: for inhibition at 10 µM: read-out: ERBA-A % inhibition.

For assay [3], the target named is T3, human ETB receptor (Homo sapiens, UniProt P24530).
T3 construct: expressed in transfected cells; host or cells: CHO-K1 cells, pRc-CMW (so in the source) expression vector, electroporation; membranes used
T3 sequence (P24530 27-442): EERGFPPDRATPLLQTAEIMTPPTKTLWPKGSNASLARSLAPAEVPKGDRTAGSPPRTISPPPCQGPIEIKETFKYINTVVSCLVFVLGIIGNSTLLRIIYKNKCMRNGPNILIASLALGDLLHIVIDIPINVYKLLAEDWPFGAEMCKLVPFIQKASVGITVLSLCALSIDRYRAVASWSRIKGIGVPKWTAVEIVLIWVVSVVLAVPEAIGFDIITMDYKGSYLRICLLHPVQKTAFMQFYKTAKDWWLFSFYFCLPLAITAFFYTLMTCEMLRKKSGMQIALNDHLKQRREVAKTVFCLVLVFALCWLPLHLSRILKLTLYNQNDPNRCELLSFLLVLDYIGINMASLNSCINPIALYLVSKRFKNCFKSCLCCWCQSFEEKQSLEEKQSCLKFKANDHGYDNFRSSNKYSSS
The assay is described as follows: ERBA-B: [125I]-ET-1 binding, recombinant human ETB receptor expressed in CHO-K1 cells. To be noted: human cloned ETB receptor, read-out: ERBA-B IC50, human cloned receptor data.

Where [4] appears, read: read-out: ERBA-B IC50, [125I]-ET-1, rat cerebellar membranes.
Setting [5] is: ERBA-A IC50, [125I]-ET-1, rabbit renal artery vascular smooth muscle cells.

For `CC(C)c1ccc(C2=C(Cc3ccccc3)C(O)(c3ccc(Cl)cc3)OC2=O)cc1` (racemic) [Example 4, 2(5H)-Furanone, 5-(4-chlorophenyl)-5-hydroxy-3-[4-(1-methylethyl)phenyl]-4-(phenylmethyl)- , (±)-], the inhibition at 10 µM came to 52% in assay [1] and 34% in assay [2].
On to `CC(C)c1ccc(C2=C(Cc3cccc4ccccc34)C(O)(c3ccc(Cl)cc3)OC2=O)cc1` (racemic) [Example 40, 2(5H)-Furanone, 5-(4-chlorophenyl)-5-hydroxy-3-[4-(1-methylethyl)phenyl]-4-(1-naphthalenylmethyl)-, (±)-], for which the inhibition at 10 µM in assay [1] came to 22%.
Consider `CC(C)c1ccc(C2=C(Cc3ccc4ccccc4c3)C(O)(c3ccc(Cl)cc3)OC2=O)cc1` (racemic) [Example 41, 2(5H)-Furanone, 5-(4-chlorophenyl)-5-hydroxy-3-[4-(1-methylethyl)phenyl]-4-(2-naphthalenylmethyl)-, (±)-], for which the IC50 in assay [1] was found to be 9 µM. For the same compound, the inhibition at 10 µM in assay [2] was found to be 37%.
For the compound `CC(C)c1ccc(C2=C(Cc3ccc4c(c3)OCO4)C(O)(c3ccc(Cl)cc3)OC2=O)cc1` (racemic) [Example 42, 2(5H)-Furanone, 4-(1,3-benzodioxol-5-ylmethyl)-5-(4-chlorophenyl)-5-hydroxy-3-[4-(1-methylethyl)phenyl]-, (±)-], the inhibition at 10 µM in assay [1] turned out to be 54%; in assay [2] it was 36%.
Consider `O=C1OC(O)(c2ccc(Cl)cc2)C(Cc2ccc3ccccc3c2)=C1c1ccc2c(c1)OCO2` (racemic) [Example 43, 2(5H)-Furanone, 3-(1,3-benzodioxol-5-yl)-5-(4-chlorophenyl)-5-hydroxy-4-(2-naphthalenylmethyl)-, (±)-], for which the half-inhibitory concentration (IC50) was found to be 7 µM in assay [1] (setting [4]) and 2.7 µM in assay [2] (read-out: ERBA-A IC50, [125I]-ET-1, rabbit renal artery vascular smooth muscle cells).
For `O=C1OC(O)(c2ccc(Cl)cc2)C(Cc2cccc3ccccc23)=C1c1ccc2c(c1)OCO2` (racemic) [Example 44, 2(5H)-Furanone) 3-(1,3-benzodioxol-5-yl)-5-(4-chlorophenyl)-5-hydroxy-4-(1-naphthalenylmethyl)-, (±)-], the inhibition at 10 µM in assay [1] stood at 35%. The compound also displayed an IC50 in assay [2] (setting [5]) of 2.8 µM.
Regarding `CC(C)c1ccc(CC2=C(c3ccc4c(c3)OCO4)C(=O)OC2(O)c2ccc(Cl)cc2)cc1` (racemic) [Example 45, 2(5H)-Furanone, 3-(1,3-benzodioxol-5-yl)-5-(4-chlorophenyl)-5-hydroxy-4-[[4-(1-methylethyl)phenyl]methyl]-, (35)-], the figures for the IC50 in assay [1] and in assay [2] (setting [5]) were 9.1 µM and 1.5 µM, respectively.
For `O=C1OC(O)(c2ccc(Cl)cc2)C(Cc2ccc3c(c2)OCO3)=C1c1ccc2c(c1)OCO2` (racemic) [Example 46, 2(5H)-Furanone, 3-(1,3-benzodioxol-5-yl)-4-(1,3-benzodioxol-5-ylmethyl)-5-(4-chlorophenyl)-5-hydroxy-, (±)-] the same measures were 6.4 µM and 3.6 µM.
In turn, `CN(C)c1ccc(C2=C(Cc3ccc4c(c3)OCO4)C(O)(c3ccc(Cl)cc3)OC2=O)cc1` (racemic) [Example 54, 2(5H)-Furanone, 4-(1,3-benzodioxol-5-ylmethyl)-5-(4-chlorophenyl)-3-[4-(dimethylamino)phenyl]-5-hydroxy-, (±)-] registered an IC50 in assay [1] of 18 µM.
The same measure, in the same setting: with `CN(C)c1ccc(CC2=C(c3ccc(N(C)C)cc3)C(=O)OC2(O)c2ccc(Cl)cc2)cc1` (racemic) [Example 55, 2(5H)-Furanone, 5-(4-chlorophenyl)-3-[4-(dimethylamino)phenyl]-4-[[4-(dimethylamino)phenyl]methyl]-5-hydroxy-, (±)-] the figure was 21 µM.
On the same count and under the same terms, in the case of `COc1ccc(C2=C(Cc3ccc(N(C)C)cc3)C(O)(c3ccc(Cl)cc3)OC2=O)cc1OC` (racemic) [Example 71, 2(5H)-Furanone, 5-(4-Chlorophenyl)-3-(3,4-dimethoxyphenyl)-4-[[4-(dimethylamino)phenyl]methyl]-5-hydroxy-, (±)-] it was 4.2 µM; in that of `O=C1OC(O)(c2ccccc2)C(Cc2ccccc2)=C1c1ccc2c(c1)OCO2` (centres unmarked) [Example 24, 2(5H)-Furanone, 3-(1,3-benzodioxol-5-yl)-5-hydroxy-5-phenyl-4-(phenylmethyl)-], 26 µM; in that of `O=C1OC(O)(c2ccc(Cl)cc2)C(Cc2ccccc2)=C1c1ccc2c(c1)OCO2` (centres unmarked) [Example 39, 2(5H)-Furanone, 3-(1,3-benzodioxol-5-yl)-5-(4-chlorophenyl)-5-hydroxy-4-(phenylmehyl)-], 4.2 µM.
For the compound `COc1ccc(CC2=C(c3ccc4c(c3)OCO4)C(=O)OC2(O)c2ccc(OC)cc2)cc1` (centres unmarked) [Example 77, 3-Benzo[1,3]dioxol-5-yl-5-hydroxy-4-(4-methoxybenzyl)-5-(4-methoxyphenyl)-5 H-furan-2-one], the IC50 in assay [1] (setting [4]) is 0.22 µM.
As to `COc1ccc(C2(O)OC(=O)C(c3ccc4c(c3)OCO4)=C2Cc2ccc(Cl)cc2)cc1` (centres unmarked) [Example 81, 3-Benzo[1,3]dioxol-5-yl-4-(4-chlorobenzyl)-5-hydroxy-5-(4-methoxophenyl)-5H -furan-2-one], the IC50 in assay [1] (setting [4]) stood at 0.72 µM.
Regarding `COc1ccc(C2(O)OC(=O)C(c3ccc4c(c3)OCO4)=C2Cc2ccc(OC(C)C)c(C)c2)cc1C` (centres unmarked) [Example 395, 3-Benzo[1,3]dioxol-5-yl-5-hydroxy-4-(4-isopropoxy-3-methyl-benzyl)-5-(4-methoxy-3-methyl-phenyl)-5H-furan-2-one], the results for the IC50 in assay [2] (setting [5]) and in assay [3] were 0.013 µM and 0.84 µM, respectively.
For `COc1cc(OC)cc(C2=C(Cc3ccc(OC(C)C)c(C)c3)C(O)(c3ccc(OC)c(C)c3)OC2=O)c1` (centres unmarked) [Example 396, 3-(3,5-Dimethoxy-phenyl)-5-hydroxy-4-(4-isopropoxy-3-methyl-benzyl)-5-(4-methoxy-3-methyl-phenyl)-5H-furan-2-one] the same measures were 0.047 µM and 1.2 µM.
For `COc1ccc(C2(O)OC(=O)C(c3ccc4c(c3)OCO4)=C2Cc2ccc(OC3CCCCC3)c(C)c2)cc1` (centres unmarked) [Example 397, 3-Benzo[1,3]dioxol-5-yl-4-(4-cyclohexyloxy-3-methylbenzyl)-5-hydroxy-5-(4-methoxy-phenyl)-5H-furan-2-one] the same measures were 0.61 µM and 2.6 µM.
On the same counts, the results for `COc1ccc(C2(O)OC(=O)C(c3ccc4c(c3)OCO4)=C2CC2CCCc3ccccc32)cc1` (centres unmarked) [Example 398, 3-Benzo[1,3]dioxol-5-yl-5-hydroxy-5-(4-methoxy-phenyl)-4-(1,2,3,4-tetrahydro-naphthalen-1-ylmethyl)-5H-furan-2-one] are 0.83 µM and over 2.5 µM.
As to `COC(=O)C1CCCC(CC2=C(c3ccc4c(c3)OCO4)C(=O)OC2(O)c2ccc(OC)cc2)C1` (centres unmarked) [Example 399, 3-[4-Benzo[1,3]dioxol-5-yl-2-hydroxy-2-(4-methoxyphenyl)-5-oxo-2,5-dihydro-furan-3-ylmethyl]-cyclohexanecarboxylic acid methyl ester], the IC50 is 0.02 µM in assay [2] (setting [5]) and 1.1 µM in assay [3].
On the same counts, the results for `COc1ccc(C2(O)OC(=O)C(c3ccc4c(c3)OCO4)=C2CC2CC2)cc1` (centres unmarked) [Example 400, 3-Benzo[1,3]dioxol-5-yl-4-cyclopropylmethyl-5-hydroxy-5-(4-methoxy-phenyl)-5H-furan-2-one] are 0.039 µM and over 2.5 µM.
For `COc1ccc(C2(O)OC(=O)C(c3ccc4c(c3)OCO4)=C2CC2CCCC(C(=O)O)C2)cc1` (centres unmarked) [Example 403, 3-[4-Benzo[1,3]dioxol-5-yl-2-hydroxy-2-(4-methoxyphenyl)-5-oxo-2,5-dihydro-furan-3-ylmethyl]-cyclohexanecarboxylic acid] the same measures were 0.25 µM and 3 µM.
For `COc1ccc(C2(O)OC(=O)C(c3ccc4c(c3)OCO4)=C2Cc2ccc(C(C)C)cc2)cc1` (centres unmarked) [Example 404, 3-Benzo[1,3]dioxol-5-yl-5-hydroxy-4-(4-isopropylbenzyl)-5-(4-methoxy-phenyl)-5H-furan-2-one] the same measures were 0.058 µM and over 2.5 µM.
